Assay results from patent publication US9783488B2 (CHDI Foundation, Inc., priority 2013, dated 2017).

Experiments:
[1] = molecular target: human catalytic domain HDAC4 protein (amino acids 648-1032) (Homo sapiens (Human), UniProt P56524); assay: Inhibition of HDAC4 catalytic domain enzymatic activity, fluorogenic substrate Boc-Lys(Tfa)-AMC; conditions: HDAC4 catalytic domain enzyme, read-out: Biochemical HDAC4 IC50
From the text: Analysis of Inhibition of HDAC4 with Class IIa Histone Deacetylase (HDAC) Inhibitors
The potency of Class IIa Histone Deacetylase (HDAC) inhibitors is quantified by measuring the Histone Deacetylase 4 (HDAC4) catalytic domain enzymatic activity using the fluorogenic substrate, Boc-Lys(Tfa)-AMC. The substrate is deacetylated to Boc-Lys-AMC by HDAC4. Cleavage by trypsin results in the release of the fluorophore AMC from the deacetylated substrate. The fluorescence of the sample is directly related to the histone deacetylase activity in the sample.
Serially dilute HDAC inhibitor compounds. […] Stocks of 6 μl aliquots of the 10 mM compound in DMSO are prepared and stored at […]. From one stock aliquot of each compound to be tested and the reference compound, a 16-point serial dilution is prepared according to Table 1 using a 125 μl 16-channel Matrix multi-channel pipette (Matrix Technologies Ltd).
2 μl (200×) of each diluted solution and each control (full activity: 100% DMSO alone or full inhibition 1 mM) is stamped into V-bottomed polypropylene 384-well compound plates using either the Bravo (384-well head from Agilent) or 12.5 μl 16-channel Matrix multi-channel pipette (Matrix Technologies Ltd).
Prepare HDAC4 catalytic domain enzyme (0.2 μg/mL).
Prepare 5× ([…]) Boc-Lys(Tfa)-AMC Substrate. 5× (50 μM) substrate is prepared just prior to the addition to the assay. A 1 mM substrate stock is made by diluting a 100 mM Boc-Lys(Tfa)-AMC in DMSO solution 1:100 by adding it drop-wise to assay buffer (equilibrated to r.t.) while vortexing at slow speed to prevent precipitation. The 5× substrate is prepared by diluting the 1 mM substrate solution 1:20 by adding it drop-wise to assay buffer (equilibrated to r.t.) while vortexing at slow speed to prevent precipitation.
Prepare 3× (30 μM) Developer/Stop Solution.
Assay. 5 μl of each solution of 1:20 diluted compound from above is transferred to a clear bottomed, black, 384-well assay plate using the Bravo or the Janus (384-well MDT head from Perkin Elmer). Using a 16-channel Matrix multi-channel pipette, 35 μl of the working solution of HDAC4 catalytic domain enzyme (0.2 μg/mL in assay buffer) is transferred to the assay plate. […] The assay plate is then shaken for two minutes on an orbital shaker at 900 rpm (rotations per minute). Next the plate is incubated for 15 minutes at 37° C. The reaction is stopped by adding 25 μl of 3× (3 μM) developer/stop solution to the assay plates using either the Bravo, Janus or a 16-channel Matrix multi-channel pipette. Assay plates are then shaken for 5 minutes on an orbital shaker at 1200 rpm. Next, the assay plates are incubated at 37° C. for 1 hour in a tissue culture incubator.

[2] = tested on: cellular histone deacetylase enzymatic activity in Jurkat E6-1 cells; assay: Inhibition of cellular HDAC activity in Jurkat E6-1 cells, fluorogenic substrate Boc-Lys(Tfa)-AMC; format: cell-based; conditions: Homo sapiens, read-out: Cell IC50
From the text: Analysis of Inhibition of Cellular HDAC Activity with Class IIa Histone Deacetylase (HDAC) Inhibitors
The potency of Class IIa Histone Deacetylase (HDAC) inhibitors is quantified by measuring the cellular histone deacetylase enzymatic activity using the fluorogenic substrate, Boc-Lys(Tfa)-AMC. After penetration in Jurkat E6-1 cells, the substrate is deacetylated to Boc-Lys-AMC. After cell lysis and cleavage by trypsin, the fluorophore AMC is released from the deacetylated substrate only. The fluorescence of the sample is directly related to the histone deacetylase activity in the sample.
Jurkat E6.1 cell culture and plating. Jurkat E6.1 cells are cultured according to standard cell culture protocols in Jurkat E6.1 Growth Media (RPMI without phenol red, 10% FBS, 1 mM HEPES, and 1 mM Sodium Pyruvate). Jurkat E6.1 cells are counted using a Coulter Counter and resuspended in Jurkat E6.1 growth media at a concentration of 75,000 cells/35 μl. 35 μl or 75,000 cells is seeded into Greiner microtitre assay plates. The plates are then incubated at 37° C. and 5% CO2 while other assay components are being prepared.
Serially dilute HDAC inhibitor compounds. Serial dilutions of the HDAC inhibitors and control reference compound (1-(5-(3-((4-(1,3,4-oxadiazol-2-yl)phenoxy)methyl)-1,2,4-oxadiazol-5-yl)thiophen-2-yl)-2,2,2-trifluoroethanone) are made by first resuspending the lyophilized compound to a final concentration of 10 mM in […]. Stocks of 70 μl aliquots of the 10 mM compound in DMSO are prepared and stored at −20° C. From one stock aliquot of each compound to be tested and the reference compound, a 16-point serial dilution is prepared according to Table 1 using a 125 μl 16-channel Matrix multi-channel pipette.
2 μl (200×) of each diluted solution and each control (full activity: 100% DMSO alone or full inhibition 1 mM) is stamped into V-bottom polypropylene 384-well compound plates using either the Bravo, Janus, or 12.5 μl 16-channel Matrix multi-channel pipette. Each well with the 200× compound solution is diluted 1:20 by the addition of 38 μl Jurkat assay buffer+DMSO (9.5% DMSO, RPMI without phenol red, 0.09% FBS, 9 mM Hepes, and 0.9 mM Sodium Pyruvate equilibrated to r.t.)
Prepare 5× (500 μM) Boc-Lys(Tfa)-AMC substrate. 5× (500 μM) substrate is prepared just prior to the addition to the assay. The 5× substrate is prepared by diluting a 100 mM Boc-Lys(Tfa)-AMC in DMSO solution 1:200 by adding it drop-wise to Jurkat assay medium (RPMI without phenol red, 0.1% FBS, 10 mM Hepes, and 1 mM Sodium Pyruvate equilibrated to 37° C.) while vortexing at slow speed to prevent precipitation.
Prepare 3× Lysis Buffer. 10 mL of 3× lysis buffer is prepared with 8.8 mL of 3× stock lysis buffer (50 mM Tris-HCl, pH 8.0, 137 mM NaCl, 2.7 mM KCl, 1 mM MgCl2, 1% Nonidet P40 Substitute equilibrated to r.t.) and 1.2 mL of 3 mg/mL Trypsin equilibrated to r.t.
Assay. 5 μl of each solution of 1:20 diluted compound from above is transferred to the Greiner microtitre assay plates with 75,000 cells/well using the Bravo. Cells are then incubated for 2 hours at 37° C. and 5% CO2. The assay is then started by adding 10 μl of 5× (500 μM) substrate to the assay plate using either the Bravo or 16-channel Matrix multi-channel pipette. The cells are then incubated for 3 hours at 37° C. and 5% CO2. Next, 25 μl of 3× lysis buffer is added to each well using either the 125 μl 16 channel pipette or the Bravo. The assay plate is then incubated overnight (15-16 hours) at 37° C. and 5% CO2. The following day, the plates are shaken on an orbital shaker for 1 minute at 900 rpm. Finally the top read fluorescence (Excitation: 355 nm, Emission: 460 nm) is measured using PerkinElmer EnVision.

human catalytic domain HDAC4 protein (amino acids 648-1032), sequence (P56524 648-1032): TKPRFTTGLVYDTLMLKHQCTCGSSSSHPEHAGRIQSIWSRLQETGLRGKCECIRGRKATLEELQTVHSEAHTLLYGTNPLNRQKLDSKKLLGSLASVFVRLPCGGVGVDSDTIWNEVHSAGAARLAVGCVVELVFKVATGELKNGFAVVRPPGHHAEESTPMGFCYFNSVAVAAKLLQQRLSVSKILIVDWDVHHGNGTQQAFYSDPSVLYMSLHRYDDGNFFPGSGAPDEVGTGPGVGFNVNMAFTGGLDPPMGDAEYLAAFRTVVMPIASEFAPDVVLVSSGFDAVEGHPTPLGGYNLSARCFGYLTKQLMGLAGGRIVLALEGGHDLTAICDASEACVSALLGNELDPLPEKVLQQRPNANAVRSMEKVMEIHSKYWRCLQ

Row | SMILES | IC50 [1] [µM] | IC50 [2] [µM]
1 | Cc1c(F)cccc1[C@]1(C(=O)NO)CC[C@H](N2CCOCC2)C1 (relative stereo) [Example 90, (1S,3S*)-1-(3-Fluoro-2-methylphenyl)-N-hydroxy-3-morpholinocyclopentanecarboxamide] | 2.5 | 24
2 | Cc1ccc(F)cc1C1(C(=O)NO)CCCC1 [Example 36, 1-(5-Fluoro-2-methylphenyl)-N-hydroxycyclopentanecarboxamide] | 0.83 | 7.5
3 | Cc1c(F)cc(F)cc1C1(C(=O)NO)CCCC1 [Example 30, 1-(3,5-Difluoro-2-methylphenyl)-N-hydroxycyclopentanecarboxamide] | 0.33 | 2.63
4 | O=C(NO)C1(c2ccccc2C(F)(F)F)CCCC1 [Example 34, N-Hydroxy-1-(2-(trifluoromethyl)phenyl)cyclopentanecarboxamide] | 11 | 46
5 | Cc1c(F)cccc1[C@]1(C(=O)NO)CC[C@H](c2ccc3cnn(C(F)F)c3c2)C1 (relative stereo) [Example 55, (1S,3S*)-3-(1-(difluoromethyl)-1H-indazol-6-yl)-1-(3-fluoro-2-methylphenyl)-N-hydroxycyclopentanecarboxamide] | 0.046 | 0.16
6 | COc1ncc([C@H]2CC[C@@](C(=O)NO)(c3cccc(F)c3C)C2)cc1F (relative stereo) [Example 44, (1S,3S*)-1-(3-fluoro-2-methylphenyl)-3-(5-fluoro-6-methoxypyridin-3-yl)-N-hydroxycyclopentanecarboxamide] | 0.33 | 1.7
7 | Cc1c(F)cccc1[C@]1(C(=O)NO)CC[C@@H](c2cc(F)cnc2C2CC2)C1 [Example 43, (1S,3R)-3-(2-cyclopropyl-5-fluoropyridin-3-yl)-1-(3-fluoro-2-methylphenyl)-N-hydroxycyclopentanecarboxamide] | 0.24 | 0.61
8 | Cc1c(F)cccc1[C@]1(C(=O)NO)CC[C@H](c2cncnc2)C1 (relative stereo) [Example 3, (±)-(1S*,3S*)-1-(3-fluoro-2-methylphenyl)-N-hydroxy-3-(pyrimidin-5-yl)cyclopentanecarboxamide] | 0.39 | 1.6
9 | CCc1ccccc1C1(C(=O)NO)CCCC1 [Example 32, 1-(2-Ethylphenyl)-N-hydroxycyclopentanecarboxamide] | 1.1 | 6.5
10 | COc1ncc([C@@H]2CC[C@@](C(=O)NO)(c3cccc(F)c3C)C2)cc1F (relative stereo) [Example 45, (1S,3R*)-1-(3-fluoro-2-methylphenyl)-3-(5-fluoro-6-methoxypyridin-3-yl)-N-hydroxycyclopentanecarboxamide] | 0.19 | 0.42
11 | Cc1c(F)cccc1[C@]1(C(=O)NO)CC[C@@H](c2ccc3c(c2)ncn3C)C1 (relative stereo) [Example 69, (1S,3R*)-1-(3-fluoro-2-methylphenyl)-N-hydroxy-3-(1-methyl-1H-benzo[d]imidazol-5-yl)cyclopentanecarboxamide] | 0.09 | 0.2
12 | Cc1c(F)cccc1[C@@]1(C(=O)NO)CC[C@@H](c2cncc(F)c2)C1 (stereo in doubt) [Example 40, (1R,3R*)-1-(3-fluoro-2-methylphenyl)-3-(5-fluoropyridin-3-yl)-N-hydroxycyclopentanecarboxamide] | 3.6 | 8.4
13 | Cc1c(F)cccc1[C@]1(C(=O)NO)CC[C@@H](c2ccc3cnn(C)c3c2F)C1 (relative stereo) [Example 83, (1S,3R*)-3-(7-Fluoro-1-methyl-1H-indazol-6-yl)-1-(3-fluoro-2-methylphenyl)-N-hydroxycyclopentanecarboxamide] | 0.055 | 0.059
14 | Cc1c(F)cccc1[C@]1(C(=O)NO)CC[C@H](c2ccc3cnn(C)c3c2)CC1 [Example 104, (1r,4r)-1-(3-fluoro-2-methylphenyl)-N-hydroxy-4-(1-methyl-1H-indazol-6-yl)cyclohexanecarboxamide] | 0.95 | 0.65
15 | Cc1c(F)cccc1[C@]1(C(=O)NO)CC[C@@H](c2cnn(C(F)F)c2)C1 (relative stereo) [Example 46, (1S,3R*)-3-(1-(Difluoromethyl)-1H-pyrazol-4-yl)-1-(3-fluoro-2-methylphenyl)-N-hydroxy cyclopentane carboxamide] | 0.095 | 0.54
16 | Cc1c(F)cccc1[C@]1(C(=O)NO)CC[C@@H](c2cncnc2)C1 (relative stereo) [Example 2, (±)-(1S*,3R*)-1-(3-fluoro-2-methylphenyl)-N-hydroxy-3-(pyrimidin-5-yl)cyclopentanecarboxamide] | 0.29 | 1.91
17 | Cc1c(F)cccc1[C@]1(C(=O)NO)CC[C@@H](c2ccc3cnn(C)c3c2)C1 (relative stereo) [Example 56, (1S,3R*)-1-(3-fluoro-2-methylphenyl)-N-hydroxy-3-(1-methyl-1H-indazol-6-yl)cyclopentanecarboxamide] | 0.14 | 0.23
18 | Cc1c(F)cccc1[C@]1(C(=O)NO)CC[C@@H](c2ccc3c(c2)NCC(C)(C)O3)C1 (relative stereo) [Example 72] | 0.3 | 0.47
19 | O=C(NO)C1(c2ccccc2Cl)CCCC1 [Example 26, 1-(2-Chlorophenyl)-N-hydroxycyclopentanecarboxamide] | 1.9 | 15.1
